Results taken from patent US12570661B2, “Isoform-specific aldehyde dehydrogenase inhibitors” (The Board of Trustees of the Leland Stanford Junior …, priority 2020, dated 2026).
“Also recorded” adds a separate entry of the source. Like-named read-outs stand apart in the source and are kept apart here.

Biological target: T1, ALDH1B1 (Homo sapiens, UniProt P30837)
T1 sequence (P30837 18-517): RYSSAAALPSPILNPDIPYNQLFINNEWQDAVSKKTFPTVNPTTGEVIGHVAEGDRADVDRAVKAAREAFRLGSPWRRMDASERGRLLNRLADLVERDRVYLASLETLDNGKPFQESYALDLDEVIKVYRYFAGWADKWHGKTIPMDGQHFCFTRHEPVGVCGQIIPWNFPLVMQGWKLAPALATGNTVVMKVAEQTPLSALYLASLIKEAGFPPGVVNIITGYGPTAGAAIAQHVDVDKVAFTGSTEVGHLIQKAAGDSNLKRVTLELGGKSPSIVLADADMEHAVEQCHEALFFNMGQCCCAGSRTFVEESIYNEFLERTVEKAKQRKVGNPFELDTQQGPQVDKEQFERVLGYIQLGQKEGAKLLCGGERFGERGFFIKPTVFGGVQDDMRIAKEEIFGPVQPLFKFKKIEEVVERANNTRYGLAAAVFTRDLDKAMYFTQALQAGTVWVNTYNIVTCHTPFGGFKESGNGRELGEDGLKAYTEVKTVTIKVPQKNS
Assay: ALDH1B1 enzyme kinetics assay (NADH fluorescence, acetaldehyde substrate)
Type: biochemical
Design: made in house; host or cells: E. coli BL21 (optionally co-expressed with GroEL/GroES)
Conditions: for ALDH1B1 inhibition / isoform selectivity (in words): enzyme kinetics assays against ALDH isoforms
Protocol: Cloning, expression, and purification of human recombinant ALDH1A1, ALDH1A3, ALDH2, ALDH3A1, ALDH3A2, ALDH4A1, ALDH5A1 and ALDH7A1 isozymes were conducted as described previously (Chen, C. H. et al. (2015) Proc. Natl. Acad. Sci. U.S.A. 112, 3074-3079). Human ALDH1A2 (Origene, SC109995) and ALDH1B1 (T. Hurley, Indiana University) plasmids were cloned into the pET-15b expression vector (Novagen, 69661-3) containing an N-terminal hexahistidine tag. The mitochondria-targeting sequence of ALDH1B1 was also removed. For protein expression without chaperones, the pET-15b based plasmids were transformed into competent BL21 E. coli cells, which were subsequently grown in 1 L of Luria-Bertani medium containing 100 μg/mL ampicillin at 37° C. Once the OD600 value reached 0.6, the culture was transferred to 16° C. and 0.5 mM isopropyl β-d-1-thiogalactopyranoside was introduced to induce protein expression overnight. The bacteria were then pelleted by centrifugation (3000×g, 4° C. for 30 rain) and harvested. 40 mL BugBuster Master Mix buffer (MilliporeSigrna) containing a protease inhibitor cocktail (cOmplete; Roche) was added, and the cells were lysed by mechanically rolling the suspension at room temperature for 25 min. The lysate was centrifuged (16000×g, 4° C. for 30 min), and the soluble fraction was collected and mixed with 2 mL of Ni-NTA Superflow resin (Qiagen). After the mixture was avowed to rock at 4° C. for 1 h, it was used to create a 10-mL gravity column, which was sequentially treated with 40 mL of wash buffer 1 (20 mM sodium phosphate, 500 mM NaCl, 1 mM DTT, 20 mM imidazole, 5% glycerol, pH 7.4) and 25 mL of wash buffer 2 (20 mM sodium phosphate, 500 mM NaCl, 1 mM DTT, 40 mM imidazole, 5% glycerol, pH 7.4). The hexahistidine-tagged protein was then recovered by treated the column with 5 mL elution buffer (20 mM sodium phosphate, 500 mM NaCl, 1 mM DTT, 400 mM imidazole, 5% glycerol, pH 7.4) and collecting 500-μL fractions. The protein concentration for each fraction was measured (500 μL elution volume was collected as one fraction and was immediately mixed with 500 μL glycerol. The protein concentration for each fraction was measured (600 nm Protein Assay Reagent; Thermo Fisher Scientific), and protein-containing fractions were diluted with an equal volume of glycerol and stored at −80° C. Samples from each step were also collected for SDS-PAGE gel analysis. For ALDH1B1 protein co-expression with chaperones, pET-15b-ALDH1B1 and GroEL/GroES (Addgene, plasmid pBB541) plasmids were co-transformed into competent BL21 E. coli cells, which were subsequently grown in 1 L of Luria-Bertani medium containing 100 μg/mL ampicillin and 50 μg/mL spectinomycin at 37° C. The hexahistidine-tagged ALDH1B1 protein was then expressed and purified as described above.
To evaluate compound activities against ALDH isoforms, reaction mixtures consisting of enzyme assay buffer (100 mM sodium phosphate, 1 mM MgCl2, pH 8.0) and 0.1% DMSO, 1 mM β-mercaptoethanol, 1 mM NAD^+, and the bacterially expressed protein were prepared in white opaque 96-well assay plates (100 μL/well, flat-bottom and non-treated; Corning Costar). 5 μg/mL ALDH enzyme was used for single-dose (1, 10, 50 μM) compound test, and 1 μg/mL ALDH enzyme was used for IC50s determination. Acetaldehyde was then added to each well to achieve an initial substrate concentration of 1 mM, and the resulting enzymatic activity was measured based on NADH fluorescence. The fluorescence signal was read over the course of 10 min on a SpectraMax M2e microplate reader (340-nm excitation and 460-nm emission; Molecular Devices) operated by SoftMax Pro software. Compound activities were normalized to a DMSO control, and dose-response inhibition curves were fitted with four-parameter non-linear regression using Prism software. […]

[1] = 1 μg/mL enzyme, 1 mM acetaldehyde, 1 mM NAD+, read-out: ALDH1B1(in vitro) IC50

| Compound | ALDH1B1 inhibition / isoform selectivity (in words) | IC50 [1] | further results |
| --- | --- | --- | --- |
| COc1ccccc1-n1cc(-c2ccccn2)[n+]2c1CCCCC2 [Compound 63] | inactive against ALDH1B1 | – | – |
| COc1ccccc1-c1ccc(-c2cn(-c3ccccc3OC)c3[n+]2CCCCC3)cc1.[Br-] [Imidazolium 8] | ALDH1B1-specific inhibitors; also recorded: enhanced specificity for ALDH1B1 in comparison to imidazolium 2 | 47 nM | potency against ALDH1B1 relative to imidazolium 2 (and 8) (dose-response, FIG. 15 panel d): comparable potencies |
| COc1ccccc1C1=CN(c2ccc(-c3ccccc3)cc2)C2=NCCCN12 [STL5-T-0002] | – | 120 nM | – |

Now from value to compound, other results behind:

| ALDH1B1 inhibition / isoform selectivity (in words) | IC50 [1] | Compound | further results |
| --- | --- | --- | --- |
| – | 47 nM | COc1ccccc1C1=CN(c2ccc(-c3ccccc3)cc2)C2=NCCCCN12 [HPI-273] | – |
| most potent | 42 nM | COc1ccccc1-n1cc(-c2ccc(-c3ccccc3)cc2)[n+]2c1CCCCC2 [Imidazolium 2] | IC50 (FIG. 2, panel B, read-out: ALDH1B1 IC50 (dose-response experiments, text)): 57 nM; activity against other ALDH1 enzymes relative to ALDH1B1 (dose-response, ALDH1A1, ALDH1A3, ALDH1B1): over an order of magnitude weaker activity against other ALDH1 enzymes; mode of ALDH1B1 inhibition with respect to NAD+ (varying NAD+, Lineweaver-Burk): uncompetitive; mode of ALDH1B1 inhibition with respect to acetaldehyde (varying acetaldehyde, Lineweaver-Burk): non-competitive |
